Source: patent US9730937B2, “RAF kinase modulator compounds and methods of use thereof” (AMBIT BIOSCIENCES CORPORATION, priority 2008, dated 2017)
Counter-ions that a name gives are not always drawn. Like-named read-outs stand apart in the source and are kept apart here.

Tests used:
[1] = target: mutant BRAF kinase (Homo sapiens (Human), UniProt P15056, V600E); details: read-out: BRAF V600E Kd, class symbols
[2] = test system: panel of 290 distinct kinases (321 in the larger panel), excluding mutant variants; details: kinase selectivity score, class symbols
Method: The liganded beads were blocked with excess biotin and washed with blocking buffer (SeaBlock (Pierce), 1% BSA, 0.05% Tween 20, 1 mM DTT) to remove unbound ligand and to reduce non-specific binding. […] Test compounds were prepared as 100× stocks in DMSO and rapidly diluted into the aqueous environment. DMSO was added to control assays lacking a test compound. Primary screen interactions were performed in polypropylene 384-well plates in a final volume of 34 μL, while Kd determinations were performed in polystyrene 96-well plates in a final volume of 135 μL. […] The kinase concentration in the eluates was measured by quantitative PCR. Each kinase was tested individually against each compound. KdS were determined using eleven serial threefold dilutions. A selectivity score, which is a quantitative measure of selectivity of a compound against a panel of enzymes, may be calculated for a compound by dividing the number of enzymes for which a compound meets a set criteria, (for example, a binding constant of 100 nM or less), by the total number of enzymes tested. […] (Note, for those compounds tested in a larger kinase panel, as indicated by an asterisk (*) next to the S35 score, the divisor is 321 (i.e. the larger panel contains 321 distinct kinases, excluding mutant variants.)).

[3] = value marked * (larger kinase panel)

Chain of mutant BRAF kinase (P15056 whole entry V600E): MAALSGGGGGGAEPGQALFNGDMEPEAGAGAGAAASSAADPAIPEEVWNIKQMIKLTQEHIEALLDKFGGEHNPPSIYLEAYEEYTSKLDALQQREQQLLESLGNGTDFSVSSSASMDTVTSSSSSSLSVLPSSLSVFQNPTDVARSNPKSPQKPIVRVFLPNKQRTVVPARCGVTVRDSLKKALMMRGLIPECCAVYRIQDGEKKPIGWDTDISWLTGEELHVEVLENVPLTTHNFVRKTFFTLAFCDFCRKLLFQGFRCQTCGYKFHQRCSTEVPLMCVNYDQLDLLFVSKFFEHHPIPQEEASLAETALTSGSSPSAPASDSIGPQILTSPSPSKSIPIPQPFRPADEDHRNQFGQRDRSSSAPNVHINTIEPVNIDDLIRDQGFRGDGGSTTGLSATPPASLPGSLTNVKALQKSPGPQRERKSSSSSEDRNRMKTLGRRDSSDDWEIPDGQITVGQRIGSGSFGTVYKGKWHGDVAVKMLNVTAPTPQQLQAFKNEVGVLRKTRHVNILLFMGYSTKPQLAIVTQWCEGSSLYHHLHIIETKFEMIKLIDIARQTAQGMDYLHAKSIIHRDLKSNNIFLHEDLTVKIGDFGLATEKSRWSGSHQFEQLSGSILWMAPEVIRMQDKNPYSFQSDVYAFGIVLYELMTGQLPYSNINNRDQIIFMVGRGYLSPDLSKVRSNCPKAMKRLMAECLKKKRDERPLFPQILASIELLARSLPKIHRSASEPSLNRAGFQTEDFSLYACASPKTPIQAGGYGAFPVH

COCCOc1cc2c(Oc3cccc(NC(=O)Nc4cc(C(C)(C)C)on4)c3)ncnc2cc1OC [Ex 15, 1-(5-tert-butylisoxazol-3-yl)-3-{3-[7-methoxy-6-(2-methoxyethoxy)quinazolin-4-yloxy]phenyl}urea hydrochloride]
Kd [1]: < 250 nM
S35 ([2]; 290 distinct kinases): C (0.20 < C ≦ 0.40)

COc1cc2ncnc(Oc3cccc(NC(=O)Nc4cc(C(C)(C)C)on4)c3)c2cc1OCCCN1CCN(S(C)(=O)=O)CC1 [Ex 25, 1-(5-tert-butylisoxazol-3-yl)-3-(3-(7-methoxy-6-(3-(4-(methylsulfonyl)piperazin-1-yl)propoxy)quinazolin-4-yloxy)phenyl)urea]
Kd [1]: < 250 nM
S35 ([2]; 290 distinct kinases): D (D > 0.40)

COc1cc2ncnc(Sc3cccc(NC(=O)Nc4cc(C(C)(C)C)on4)c3)c2cc1OCCCN1CCN(S(C)(=O)=O)CC1 [Ex 60, 1-(5-tert-butylisoxazol-3-yl)-3-(3-(7-methoxy-6-(3-(4-(methylsulfonyl)piperazin-1-yl)propoxy)quinazolin-4-ylthio)phenyl)urea]
Kd [1]: < 250 nM
S35 ([2]; 290 distinct kinases): C (0.20 < C ≦ 0.40)

COc1cc2c(Oc3cccc(NC(=O)Nc4cc(C(C)(C)C)on4)c3)ncnc2cc1O [Ex 95, 1-(5-tert-butylisoxazol-3-yl)-3-(3-(7-hydroxy-6-methoxyquinazolin-4-yloxy)phenyl)urea]
Kd [1]: < 250 nM
S35 ([2]; 290 distinct kinases): C (0.20 < C ≦ 0.40)

COCCOc1cc2ncnc(Sc3cccc(NC(=O)Nc4cc(C(C)(C)C)on4)c3)c2cc1OC [Ex 52, 1-(5-tert-butylisoxazol-3-yl)-3-{3-[6-methoxy-7-(2-methoxyethoxy)quinazolin-4-ylthio]phenyl}urea hydrochloride]
Kd [1]: < 250 nM
S35 ([2]; 290 distinct kinases): C (0.20 < C ≦ 0.40)

COc1cc2c(Sc3cccc(NC(=O)Nc4cc(C(C)(C)C)on4)c3)ncnc2cc1OCCCN1CCN(S(C)(=O)=O)CC1 [Ex 77, 1-(5-tert-butylisoxazol-3-yl)-3-(3-(6-methoxy-7-(3-(4-(methylsulfonyl)piperazin-1-yl)propoxy)quinazolin-4-ylthio)phenyl)urea]
Kd [1]: < 250 nM
S35 ([2]; 290 distinct kinases): D (D > 0.40)

COc1cc2ncnc(Oc3cccc(NC(=O)Nc4cc(C(F)(F)F)ncn4)c3)c2cc1OC [Ex 146, 1-(3-(6,7-dimethoxyquinazolin-4-yloxy)phenyl)-3-(6-(trifluoromethyl)pyrimidin-4-yl)urea]
Kd [1]: < 250 nM
S35 [2, 3]: B* (0.10 < B ≦ 0.20)

COc1cc2c(Sc3cccc(NC(=O)Nc4cc(C(C)(C)C)on4)c3)ncnc2cc1OCCN1CCOCC1 [Ex 79, (1-(5-tert-butylisoxazol-3-yl)-3-(3-(6-methoxy-7-(2-morpholinoethoxy)quinazolin-4-ylthio)phenyl)urea)]
Kd [1]: < 250 nM
S35 ([2]; 290 distinct kinases): D (D > 0.40)

CC(C)(C)c1cc(NC(=O)Nc2cccc(Oc3ncnc4ccc(-c5ccc(CNCCS(C)(=O)=O)o5)cc34)c2)no1 [Ex 92, 1-(5-tert-butylisoxazol-3-yl)-3-{3-[6-(5-{[2-(methylsulfonyl)ethylamino]methyl}furan-2-yl)quinazolin-4-yloxy]phenyl}urea]
Kd [1]: < 250 nM
S35 ([2]; 290 distinct kinases): C (0.20 < C ≦ 0.40)

COc1cc2c(Oc3cccc(NC(=O)Nc4cc(C(C)(C)C)on4)c3)ncnc2cc1OCCCN1CCOCC1 [Ex 27, 1-(5-tert-butylisoxazol-3-yl)-3-(3-(6-methoxy-7-(3-morpholinopropoxy)quinazolin-4-yloxy)phenyl)urea]
Kd [1]: < 250 nM
S35 ([2]; 290 distinct kinases): D (D > 0.40)

COc1cc2c(Oc3cccc(NC(=O)Nc4cc(C(C)(C)C)on4)c3)ncnc2cc1O[C@@H]1CCN(C)C1 [Ex 99, (R)-1-(5-tert-butylisoxazol-3-yl)-3-(3-(6-methoxy-7-(1-methylpyrrolidin-3-yloxy)quinazolin-4-yloxy)phenyl)urea mono acetate]
Kd [1]: < 250 nM
S35 ([2]; 290 distinct kinases): C (0.20 < C ≦ 0.40)

COc1cc2ncnc(Sc3cccc(NC(=O)Nc4cc(C(C)(C)C)on4)c3)c2cc1OC [Ex 46, 1-(5-tert-butylisoxazol-3-yl)-3-(3-(6,7-dimethoxyquinazolin-4-ylthio)phenyl)urea]
Kd [1]: < 250 nM
S35 ([2]; 290 distinct kinases): C (0.20 < C ≦ 0.40)

COc1cc2c(Oc3cccc(NC(=O)Nc4cc(C(C)(C)C)on4)c3)ncnc2cc1OCCN1CCN(CCO)CC1 [Ex 38, 1-(5-tert-butylisoxazol-3-yl)-3-(3-(7-(2-(4-(2-hydroxyethyl)piperazin-1-yl)ethoxy)-6-methoxyquinazolin-4-yloxy)phenyl)urea]
Kd [1]: < 250 nM
S35 ([2]; 290 distinct kinases): D (D > 0.40)

COc1cc2c(Sc3cccc(NC(=O)Nc4cc(C(C)(C)C)on4)c3)ncnc2cc1OCCN1CCN(S(C)(=O)=O)CC1 [Ex 81, 1-(5-tert-butylisoxazol-3-yl)-3-(3-(6-methoxy-7-(2-(4-(methylsulfonyl)piperazin-1-yl)ethoxy)quinazolin-4-ylthio)phenyl)urea]
Kd [1]: < 250 nM
S35 ([2]; 290 distinct kinases): C (0.20 < C ≦ 0.40)

COc1cc2ncnc(Sc3cccc(NC(=O)Nc4cc(C(C)(C)C)on4)c3)c2cc1OCCCN1CCCCC1 [Ex 57, 1-(5-tert-butylisoxazol-3-yl)-3-(3-(7-methoxy-6-(3-(piperidin-1-yl)propoxy)quinazolin-4-ylthio)phenyl)urea]
Kd [1]: < 250 nM
S35 ([2]; 290 distinct kinases): C (0.20 < C ≦ 0.40)

CCOc1cccc(NC(=O)Nc2cccc(Oc3ncnc4cc(OC)c(OC)cc34)c2)c1 [Ex 179, 1-(3-(6,7-dimethoxyquinazolin-4-yloxy)phenyl)-3-(3-ethoxyphenyl)urea]
Kd [1]: < 250 nM
S35 [2, 3]: B* (0.10 < B ≦ 0.20)

COc1cc2ncnc(Oc3cccc(NC(=O)Nc4ccc(C(C)(C)C)cc4)c3)c2cc1OC [Ex 173, 1-(4-tert-butylphenyl)-3-(3-(6,7-dimethoxyquinazolin-4-yloxy)phenyl)urea]
Kd [1]: < 250 nM
S35 ([2]; 290 distinct kinases): C (0.20 < C ≦ 0.40)

COc1cc2ncnc(Oc3cccc(NC(=O)Nc4cc(C(C)(C)C)on4)c3)c2cc1OCCCN1CCC(CO)CC1 [Ex 24, 1-(5-tert-butylisoxazol-3-yl)-3-(3-(6-(3-(4-(hydroxymethyl)piperidin-1-yl)propoxy)-7-methoxyquinazolin-4-yloxy)phenyl)urea]
Kd [1]: < 250 nM
S35 ([2]; 290 distinct kinases): D (D > 0.40)

COc1cc2ncnc(Sc3cccc(NC(=O)Nc4cc(C(C)(C)C)on4)c3)c2cc1OCCN1CCC(CO)CC1 [Ex 66, 1-(5-tert-butylisoxazol-3-yl)-3-(3-(6-(2-(4-(hydroxymethyl)piperidin-1-yl)ethoxy)-7-methoxyquinazolin-4-ylthio)phenyl)urea]
Kd [1]: < 250 nM
S35 ([2]; 290 distinct kinases): C (0.20 < C ≦ 0.40)

COc1cc2c(Oc3cccc(NC(=O)Nc4cc(C(C)(C)C)on4)c3)ncnc2cc1OCCCN1CC[C@@H](O)C1 [Ex 34, (R)-1-(5-tert-Butylisoxazol-3-yl)-3-(3-(7-(3-(3-hydroxypyrrolidin-1-yl)propoxy)-6-methoxyquinazolin-4-yloxy)phenyl)urea]
Kd [1]: < 250 nM
S35 [2, 3]: D* (D > 0.40)

COc1cc2c(Sc3cccc(NC(=O)Nc4cc(C(C)(C)C)on4)c3)ncnc2cc1OCCCN1CCN(CCO)CC1 [Ex 75, 1-(5-tert-butylisoxazol-3-yl)-3-(3-(7-(3-(4-(2-hydroxyethyl)piperazin-1-yl)propoxy)-6-methoxyquinazolin-4-ylthio)phenyl)urea]
Kd [1]: < 250 nM
S35 ([2]; 290 distinct kinases): D (D > 0.40)
